The record followed here is patent US20230227427A1, “IL-17A MODULATORS” (SANOFI, priority 2010, published 2023).

The target of this assay is T1, human recombinant IL-17A (Homo sapiens, UniProt Q16552).
T1 construct: purchased R&D Systems 7955-IL/CF
T1 sequence (Q16552 24-155): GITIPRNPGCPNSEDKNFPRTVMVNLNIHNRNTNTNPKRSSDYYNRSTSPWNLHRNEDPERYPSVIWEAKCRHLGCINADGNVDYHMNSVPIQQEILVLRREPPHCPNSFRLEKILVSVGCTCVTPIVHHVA
Kind of assay: IL-17A AlphaLISA assay (block binding of IL-17A to its receptor IL-17RA). Particulars: compounds pre-incubated with the IL-17A for 24 h at room temperature; read-out: AlphaLISA pIC50 (converted). The method, then: The ability of the compounds to block binding of IL-17A to its receptor, IL-17RA, was analysed in a competition assay using AlphaLISA technology (Perkin Elmer). The assay is a bead based AlphaLISA where the IL-17RA is captured on the acceptor bead via an Fc tag and IL-17A is captured on the streptavidin donor bead via a biotinylated anti-IL17A antibody.
Assay buffer was prepared by adding 0.05% Tween-20 (v/v) and 0.1% BSA to Phosphate Buffered Saline (PBS). The assay was carried out in 384-well white low volume plates (Corning 4512). 10 µL of a 7.5 nM stock of human recombinant IL-17A (R&D Systems 7955-IL/CF) diluted in assay buffer was dispensed into the assay plate and compounds or DMSO vehicle control were added in a volume of 75 nL using a D300 dispenser (Hewlett Packard). The compounds were pre-incubated with the IL-17A for 24 h at room temperature (or for 30 min, where indicated by * in Table A below) prior to addition of 5 μL of a 5 nM stock of human recombinant IL-17RA/Fc chimera (R&D Systems 177-IR-100) diluted in assay buffer. The IL-17A was incubated with the receptor for a further 90 minutes at room temperature before addition of 5 μL of a mixture of anti-human Fc IgG acceptor beads (75 μg/mL, Perkin Elmer AL103C) and anti-IL-17A biotin conjugated antibody (5 nM, Enzo Life Sciences, ENZ-ABS278-0100) in assay buffer. After a further 30 min incubation at room temperature, 5 μL of streptavidin donor beads ([…], Perkin Elmer 6760002S) were added and the plate was incubated for 3 h in the dark.
The luminescence signal was measured using an Enspire plate reader (Perkin Elmer) with excitation at 680 nm and emission at 615 nm. Data were analysed using GraphPad Prism and fitted to a 4-parameter logistic equation. The IC50 values were calculated using the DMSO vehicle as the negative control and a high concentration (6 μM) of a reference IL-17A inhibitor as the positive control.
Activity of the Example compounds is reported as a PIC50 value in Table A.
(Bead proximity is the source of the signal in Alpha formats.)

Regarding `COc1cnccc1-c1ccc(NC(=O)[C@@H](NC(=O)c2ccnn2C)C(c2ccccc2)c2ccccc2)c(F)c1` [Example 23, (S)—N-(1-((2-fluoro-4-(3-methoxypyridin-4-yl)phenyl)amino)-1-oxo-3,3-diphenylpropan-2-yl)-1-methyl-1H-pyrazole-5-carboxamide], the IC50 was 39.8 nM.
The figure for `COc1cnccc1-c1ccc(NC(=O)[C@@H](NC(=O)c2ccnn2C)C(c2ccccc2)c2ccccc2)cc1F` [Example 24, (S)—N-(1-((3-fluoro-4-(3-methoxypyridin-4-yl)phenyl)amino)-1-oxo-3,3-diphenylpropan-2-yl)-1-methyl-1H-pyrazole-5-carboxamide] is 31.6 nM; for `COc1c[n+]([O-])ccc1-c1ccc(NC(=O)[C@@H](NC(=O)c2ccnn2C)C(c2ccccc2)c2ccccc2)cc1` [Example 25, (S)-3-methoxy-4-(4-(2-(1-methyl-1H-pyrazole-5-carboxamido)-3,3-diphenylpropanamido)phenyl)pyridine 1-oxide] it is 5.01 nM; for `Cc1c[n+]([O-])cc(C)c1-c1ccc(NC(=O)[C@@H](NC(=O)c2ccnn2C)C(c2ccccc2)c2ccccc2)cc1` [Example 26, (S)-3,5-dimethyl-4-(4-(2-(1-methyl-1H-pyrazole-5-carboxamido)-3,3-diphenylpropanamido)phenyl)pyridine 1-oxide] it is 7.94 nM.
`COc1c[n+]([O-])cc(OC)c1-c1ccc(NC(=O)[C@@H](NC(=O)c2ccnn2C)C(c2ccccc2)c2ccccc2)cc1` [Example 27, (S)-3,5-dimethoxy-4-(4-(2-(1-methyl-1H-pyrazole-5-carboxamido)-3,3-diphenylpropanamido)phenyl)pyridine 1-oxide]: the IC50 was 5.01 nM.
Turning to `COc1c[n+]([O-])cc(F)c1-c1ccc(NC(=O)[C@@H](NC(=O)c2ccnn2C)C(c2ccccc2)c2ccccc2)cc1` [Example 28, (S)-3-fluoro-5-methoxy-4-(4-(2-(1-methyl-1H-pyrazole-5-carboxamido)-3,3-diphenylpropanamido)phenyl)pyridine 1-oxide], the IC50 was 7.94 nM.
The figure for `Cc1c(-c2c(F)cc(NC(=O)[C@@H](NC(=O)c3ccnn3C)C(c3ccccc3)c3ccccc3)cc2F)ccc(=O)n1C` [Example 29, (S)—N-(1-((4-(1,2-dimethyl-6-oxo-1,6-dihydropyridin-3-yl)-3,5-difluorophenyl)amino)-1-oxo-3,3-diphenylpropan-2-yl)-1-methyl-1H-pyrazole-5-carboxamide] is 20 nM; for `COc1cnccc1-c1c(F)cc(NC(=O)[C@@H](NC(=O)c2ccnn2C)C(c2ccccc2)c2ccccc2)cc1F` [Example 30, (S)—N-(1-((3,5-difluoro-4-(3-methoxypyridin-4-yl)phenyl)amino)-1-oxo-3,3-diphenylpropan-2-yl)-1-methyl-1H-pyrazole-5-carboxamide] it is 39.8 nM; for `Cc1nn(Cc2ccccc2)c(C)c1-c1ccc(NC(=O)[C@@H](NC(=O)c2ccnn2C)C(c2ccccc2)c2ccccc2)cc1` [Example 31, (S)—N-(1-((4-(1-benzyl-3,5-dimethyl-1H-pyrazol-4-yl)phenyl)amino)-1-oxo-3,3-diphenylpropan-2-yl)-1-methyl-1H-pyrazole-5-carboxamide] it is 631 nM.
The figure for `Cc1n[nH]c(C)c1-c1ccc(NC(=O)[C@@H](NC(=O)c2ccnn2C)C(c2ccccc2)c2ccccc2)cc1` [Example 32, (S)—N-(1-((4-(3,5-dimethyl-1H-pyrazol-4-yl)phenyl)amino)-1-oxo-3,3-diphenylpropan-2-yl)-1-methyl-1H-pyrazole-5-carboxamide] is 12.6 nM; for `Cc1c(-c2ccc(NC(=O)[C@@H](NC(=O)c3ccnn3C)[C@H]3CC[C@H](C)CC3)cc2)ccc(=O)n1C` [Example 33, N—((S)-2-((4-(1,2-dimethyl-6-oxo-1,6-dihydropyridin-3-yl)phenyl)amino)-1-((1r,4S)-4-methylcyclohexyl)-2-oxoethyl)-1-methyl-1H-pyrazole-5-carboxamide] it is 79.4 nM.
For `CCn1nccc1C(=O)N[C@H](C(=O)Nc1ccc(-c2ccc(=O)[nH]n2)c(F)c1)C(c1ccccc1)c1ccccc1` [Example 34, (S)-1-ethyl-N-(1-((3-fluoro-4-(6-oxo-1,6-dihydropyridazin-3-yl)phenyl)amino)-1-oxo-3,3-diphenylpropan-2-yl)-1H-pyrazole-5-carboxamide], the IC50 is 200 nM.
For `Cn1nccc1C(=O)N[C@H](C(=O)Nc1ccc(-c2cc[nH]c(=O)c2)c(F)c1)C(c1ccccc1)c1ccccc1` [Example 35, (S)—N-(1-((3-fluoro-4-(2-oxo-1,2-dihydropyridin-4-yl)phenyl)amino)-1-oxo-3,3-diphenylpropan-2-yl)-1-methyl-1H-pyrazole-5-carboxamide] the value was 25.1 nM; for `Cn1nccc1C(=O)N[C@H](C(=O)Nc1ccc(-c2ccncc2F)cc1)C(c1ccccc1)c1ccccc1` [Example 36, (S)—N-(1-((4-(3-fluoropyridin-4-yl)phenyl)amino)-1-oxo-3,3-diphenylpropan-2-yl)-1-methyl-1H-pyrazole-5-carboxamide], 79.4 nM.
For `Cc1ncc(C)c(-c2ccc(NC(=O)[C@@H](NC(=O)c3ccnn3C)C(c3ccccc3)c3ccccc3)cc2)n1` [Example 37, (S)—N-(1-((4-(2,5-dimethylpyrimidin-4-yl)phenyl)amino)-1-oxo-3,3-diphenylpropan-2-yl)-1-methyl-1H-pyrazole-5-carboxamide] the value was 39.8 nM; for `Cc1cc(-c2ccc(NC(=O)[C@@H](NC(=O)c3ccnn3C)C(c3ccccc3)c3ccccc3)cc2)c(C)cn1` [Example 38, (S)—N-(1-((4-(2,5-dimethylpyridin-4-yl)phenyl)amino)-1-oxo-3,3-diphenylpropan-2-yl)-1-methyl-1H-pyrazole-5-carboxamide], 100 nM; for `Cn1nccc1C(=O)N[C@H](C(=O)Nc1ccc(-c2cnc3ccccn23)cc1)C(c1ccccc1)c1ccccc1` [Example 39, (S)—N-(1-((4-(imidazo[1,2-a]pyridin-3-yl)phenyl)amino)-1-oxo-3,3-diphenylpropan-2-yl)-1-methyl-1H-pyrazole-5-carboxamide], 200 nM.
With `Cn1nccc1C(=O)N[C@H](C(=O)Nc1ccc(-c2ncnc3c2CCN3)cc1)C(c1ccccc1)c1ccccc1` [Example 40, (S)—N-(1-((4-(6,7-dihydro-5H-pyrrolo[2,3-d]pyrimidin-4-yl)phenyl)amino)-1-oxo-3,3-diphenylpropan-2-yl)-1-methyl-1H-pyrazole-5-carboxamide], the IC50 was 63.1 nM.
Regarding `Cn1nccc1C(=O)N[C@H](C(=O)Nc1ccc(-c2cnc3ncccn23)cc1)C(c1ccccc1)c1ccccc1` [Example 41, (S)—N-(1-((4-(imidazo[1,2-a]pyrimidin-3-yl)phenyl)amino)-1-oxo-3,3-diphenylpropan-2-yl)-1-methyl-1H-pyrazole-5-carboxamide], the IC50 was 200 nM.
In the case of `Cn1nccc1C(=O)N[C@H](C(=O)Nc1ccc(-c2ccncc2CO)cc1)C(c1ccccc1)c1ccccc1` [Example 42, (S)—N-(1-((4-(3-(hydroxymethyl)pyridin-4-yl)phenyl)amino)-1-oxo-3,3-diphenylpropan-2-yl)-1-methyl-1H-pyrazole-5-carboxamide], the IC50 was 50.1 nM.
The figure for `Cn1nccc1C(=O)N[C@H](C(=O)Nc1ccc(-c2ccncc2C#N)cc1)C(c1ccccc1)c1ccccc1` [Example 43, (S)—N-(1-((4-(3-cyanopyridin-4-yl)phenyl)amino)-1-oxo-3,3-diphenylpropan-2-yl)-1-methyl-1H-pyrazole-5-carboxamide] is 126 nM; for `Cn1nccc1C(=O)N[C@H](C(=O)Nc1ccc(-c2ccnc3c2CCC3)cc1)C(c1ccccc1)c1ccccc1` [Example 44, (S)—N-(1-((4-(6,7-dihydro-5H-cyclopenta[b]pyridin-4-yl)phenyl)amino)-1-oxo-3,3-diphenylpropan-2-yl)-1-methyl-1H-pyrazole-5-carboxamide] it is 251 nM; for `Cc1cc(NC(=O)[C@@H](NC(=O)c2ccnn2C)C(c2ccccc2)c2ccccc2)ccc1-c1ccncc1` [Example 45, (S)-1-methyl-N-(1-((3-methyl-4-(pyridin-4-yl)phenyl)amino)-1-oxo-3,3-diphenylpropan-2-yl)-1H-pyrazole-5-carboxamide] it is 100 nM.
For `COc1cnccc1-c1ccc(NC(=O)[C@@H](NC(=O)c2ccnn2C(F)F)C(c2ccccc2)c2ccccc2)cc1` [Example 46, (S)-1-(difluoromethyl)-N-(1-((4-(3-methoxypyridin-4-yl)phenyl)amino)-1-oxo-3,3-diphenylpropan-2-yl)-1H-pyrazole-5-carboxamide] the value was 100 nM.
